Assay results: patent publication US20150140123A1, “Protein expression analyses for identifying genotoxic compounds” (Merck Patent GmbH, priority 2012, published 2015)
Read-outs that look alike come from different tables or passages of the source.

How the values were obtained:
HepG2 cells = assay: High content imaging cytotoxicity parameters: selected cell count per valid field (SCC) and CMFDA cytoplasm average intensity
Procedure: (§1) HepG2 cells (Order No. HB-8065, Lot. 58483209, ATCC, Manassas, USA) were cultured in DMEM/F12 with L-Glutamine and 15 mM Hepes supplemented with 10% (v/v) FBS, 1% (v/v) penicillin (10 kU/ml)/streptomycin (10 mg/ml) solution, 0.1% (v/v) gentamicin (50 mg/ml), and 1 mM sodium pyruvate at 37° C. and 5% CO2 in culture flasks. Depending on the experiment, an appropriate number of cells were seeded onto plates after detaching of the cells using trypsin and cells were cultured at 37° C. and 5% CO2 for 24 h prior to treatment. All experiments were performed three times with cells of passages 4-20.
(§2) Cells were seeded onto black Poly-D-Lysin coated 96-well-plates (BD Biocoat, Franklin Lakes, USA) (0.02×10^6 cells/well) and left 24 h for adherence and then treated with test compounds at a maximum concentration of 1 mM which is recommended by the ICH S2(R1) guideline (EMA, 2011). For each compound, nine concentrations were tested with 2-fold serial dilutions. DMSO 1% (v/v) served as vehicle control for the experiments. The treatment procedure was different for direct-genotoxic and pro-genotoxic compounds. The treatment for direct genotoxic compounds was ongoing and was repeated daily over 48 h. Pro-genotoxic compounds were incubated for 6 h together with metabolic activation system (to limit the cytotoxic effect of the S9-mixture). After this period, cells were washed with cell media followed by 18-repeated daily over 48 h. The metabolic activation system used consisted of the following components and concentrations: 8 mM MgCl2, 32.8 mM KCl, 12 mM NADPH, 124 mM phosphate buffer and 2500 pmol/ml cytochrome P450 (CYP) content in the pre-mixture corresponding to 2.4 mM MgCl2, 9.8 mM KCl, 3.6 mM NADPH, 37.2 mM phosphate buffer, and 750 pmol/ml CYP as final concentrations after dilution 1:3.33 with cell culture media.
After treatment, cells were rinsed with PBS (Gibco Invitrogen, Karlsruhe, Germany), and then stained with 10 μM CellTracker Green 5-Chloromethylfluorescein Diacetate (CMFDA) (Invitrogen, Karlsruhe, Germany) in cell culture media for 30 min. CMFDA is per se non-fluorescent and is hydrolyzed by esterase in viable cells to a fluorescent-dye. The reaction with thiol groups leads to a cell-impermeable fluorescent-dye-adduct. The esterase activity can be used as an indicator for viability of cells (Papadopoulos et al., 1994, J Immunol Methods 177, 101-11). Afterwards, cells were washed with PBS and fixed with 3.7% Formaldehyde (Sigma-Aldrich, Taufkirchen, Germany) in PBS for 20 min. After that, cells were washed with PBS and blocked and permeabilized with 2% donkey serum (Millipore, Schwalbach, Germany) and 0.25% Triton X-100 (Sigma-Aldrich, Taufkirchen, Germany) in PBS for 30 min. Primary antibodies were diluted in Blocking/Permeabilization solution to final concentrations of 4 μg/ml anti-p-Chk1 (Ser345) goat polyclonal antibody IgG (santa cruz, Santa Cruz, USA), 4 μg/ml anti-p-ATM (Ser1981) mouse monoclonal antibody IgG1K (Millipore, Schwalbach, Germany) and added to the cells. After incubation for 16-18 h, cells were washed with 0.05% Tween 20 (Calbiochem, Darmstadt, Germany) in PBS, and the secondary antibody/16 μM Hoechst staining solution Blocking/Permeabilization solution was added. Secondary antibodies were diluted 1:400 (Alexa Fluor 555 donkey anti-goat, Alexa Fluor 647 donkey anti-mouse, Invitrogen, Karlsruhe, Germany). After an incubation of 1 h, followed by two additional washing steps with 0.05% Tween 20, cells were washed with PBS and finally PBS was added and cells were measured.
Image acquisition was performed on the ArrayScan VTI HCS Reader (Cellomics, Pittsburgh, USA) using a 20× objective. To detect enough cells, 50 images starting at the middle of each well were gathered.
• Channel 1: selected cell count per valid field • Channel 2: CMFDA cytoplasm average intensity • Channel 3: p-Chk1 (Ser345) nucleus average intensity • Channel 4: p-ATM (Ser1981) nucleus average intensity

[1] = test system: p-p53 (Ser15), p21, p-H2A.X (Ser139), p-ATM (Ser1981), p-Chk1 (Ser345) in HepG2 cells
Procedure: as §1, §2
Two different staining procedures were performed for each compound with and without metabolic activation system:
After treatment, cells were rinsed with PBS (Gibco Invitrogen, Karlsruhe, Germany), and then fixed with 3.7% formaldehyde (Sigma-Aldrich, Taufkirchen, Germany) in PBS for 20 min. After an additional washing step with PBS, cells were blocked and permeabilized with 2% donkey serum (Millipore, Schwalbach, Germany) and 0.25% Triton X-100 (Sigma-Aldrich, Taufkirchen, Germany) in PBS for 30 min. Primary antibodies were diluted to final concentrations of 2 μg/ml anti-p-p53 (Ser15) rabbit monoclonal antibody IgG (Invitrogen, Karlsruhe, Germany), 0.8 μg/ml anti-p21 goat polyclonal antibody IgG, (R&D systems, Minneapolis, USA); 4 μg/ml anti-p-Histone H2A.X (Ser139) mouse monoclonal antibody IgG1 (Millipore, Schwalbach, Germany) in Blocking/Permeabilization solution were added afterwards. After incubation for 16-18 h, cells were washed with 0.05% Tween 20 (Calbiochem, Darmstadt, Germany) in PBS and the secondary antibody/16 μM Hoechst staining solution in Blocking/Permeabilization solution was added. Secondary antibodies were diluted 1:400 (Alexa Fluor 488 donkey anti-rabbit, Alexa Fluor 555 donkey anti-goat, Alexa Fluor 647 donkey anti-mouse, Invitrogen, Karlsruhe, Germany). After an incubation of 1 h, followed by two additional washing steps with 0.05% Tween 20, cells were washed with PBS and finally PBS was added and cells were measured.
After treatment, cells were rinsed with PBS (Gibco Invitrogen, Karlsruhe, Germany), and then stained with 10 μM CellTracker Green 5-Chloromethylfluorescein Diacetate (CMFDA) (Invitrogen, Karlsruhe, Germany) in cell culture media for 30 min. CMFDA is per se non-fluorescent and is hydrolyzed by esterase in viable cells to a fluorescent-dye. The reaction with thiol groups leads to a cell-impermeable fluorescent-dye-adduct. The esterase activity can be used as an indicator for viability of cells (Papadopoulos et al., 1994, J Immunol Methods 177, 101-11). Afterwards, cells were washed with PBS and fixed with 3.7% Formaldehyde (Sigma-Aldrich, Taufkirchen, Germany) in PBS for 20 min.

[2] = HepG2 cells, 48 h, CMFDA cytoplasm average intensity, with rat liver S9 (+S9)
[3] = HepG2 cells, 48 h, CMFDA cytoplasm average intensity, without metabolic activation (−S9)
[4] = HepG2 cells, 48 h, selected cell count per valid field, with rat liver S9 (+S9)
[5] = HepG2 cells, 48 h, selected cell count per valid field, without metabolic activation (−S9)

Row | Structure (SMILES) | CMFDA +S9 highest conc. <50% cytotox. over control (HepG2 cells; [2]) [µM] | CMFDA −S9 highest conc. <50% cytotox. over control (HepG2 cells; [3]) [µM] | SCC +S9 highest conc. <50% cytotox. over control (HepG2 cells; [4]) [µM] | SCC −S9 highest conc. <50% cytotox. over control (HepG2 cells; [5]) [µM] | CMFDA +S9 highest conc. <50% cytotox. over control (HepG2 cells; human, 48 h) [µM] | CMFDA −S9 highest conc. <50% cytotox. over control (HepG2 cells; human, 48 h) [µM] | SCC +S9 highest conc. <50% cytotox. over control (HepG2 cells; human, 48 h) [µM] | SCC −S9 highest conc. <50% cytotox. over control (HepG2 cells; human, 48 h) [µM] | further results
1 | CN(C)N=O [Dimethylnitrosamine] | 1000 | 1000 | 1000 | 1000 |  |  |  |  | result for the five protein markers tested (compound set as positive or negative) ([1]; HepG2 cells ± S9, 48 h, positive if at least one of five proteins shows fold-change above threshold (2.1 p-Chk1, p-H2A.X; 1.8 p21, p-ATM; 1.9 p-p53)): no positive result
2 | O=[N+]([O-])c1ccc(O)cc1 [p-Nitrophenol] |  |  |  |  |  |  |  |  | result for the five protein markers tested (compound set as positive or negative) [1]: positive
3 | c1ccc2c(c1)cc1ccc3cccc4ccc2c1c34 [Benzo[a]pyrene] |  |  |  |  |  |  |  |  | CMFDA +S9 highest conc. <50% cytotox. over control (HepG2 cells; human): 125 µM; CMFDA −S9 highest conc. <50% cytotox. over control (HepG2 cells; human): 125 µM; SCC +S9 highest conc. <50% cytotox. over control (HepG2 cells; human): 125 µM; SCC −S9 highest conc. <50% cytotox. over control (HepG2 cells; human): 3.91 µM
4 | O=[As]O [Sodium arsenite] | 125 | 62.5 | 125 | 7.81 |  |  |  |  | 
5 | ClC(Cl)(Cl)C(Cl)(Cl)Cl [Hexachloroethane] | 1000 | 1000 | 1000 | 1000 |  |  |  |  | 
6 | O=C(N[C@H](CO)[C@H](O)c1ccc([N+](=O)[O-])cc1)C(Cl)Cl [Chloramphenicol] |  |  |  |  | 1000 | 1000 | 1000 | 1000 | 
7 | CCCCC(CC)COC(=O)c1ccccc1C(=O)OCC(CC)CCCC (centres unmarked) [Di-(2-ethylhexyl)phthalate] |  |  |  |  |  |  |  |  | CMFDA +S9 highest conc. <50% cytotox. over control (HepG2 cells; human): 1000 µM; CMFDA −S9 highest conc. <50% cytotox. over control (HepG2 cells; human): 1000 µM; SCC +S9 highest conc. <50% cytotox. over control (HepG2 cells; human): 1000 µM; SCC −S9 highest conc. <50% cytotox. over control (HepG2 cells; human): 1000 µM
8 | CCc1cc(C(N)=S)ccn1 [Ethionamide] |  |  |  |  | 1000 | 1000 | 1000 | 1000 | 
9 | Oc1cccc(O)c1 [1,3-Dihydroxybenzene (resorcinol), 1,3-Dihydroxybenzene] |  |  |  |  | 500 | 1000 | 1000 | 1000 | 
10 | CC(=O)[C@H]1CC[C@H]2[C@@H]3CCC4=CC(=O)CC[C@]4(C)[C@H]3CC[C@]12C [Progesterone] |  |  |  |  | 250 | 62.5 | 500 | 125 | 
